Reference: US20130079370A1, “Method for the Inhibition of Deubiquitinating Activity” (priority 2011, published 2013)

Columns and labels:
[1] = test system: orthotopic breast carcinomas (4T1); test: Orthotopic breast carcinoma (4T1) model; type: in vivo, BALB/c mice; settings: 2.5 mg/kg i.p., 1 day on/3 days off
[2] = target: T1, human 19S RP (Homo sapiens, UniProt P54578+Q9Y5K5); test: De-ubiquitinase activity assay, Ub-AMC cleavage by 19S RP; type: biochemical; settings: read-out: IC50, DUB activity by detection of Ub-AMC cleavage
T1 construct: purchased Boston Biochem E-366

[3] = test system: MCF7 cells; test: Microarray based gene expression analysis, chaperone genes; type: cell-based; set-up: key to Expression value HSPA4L / Expression value DNAJB1 / Expression value HSPD1 / Expression value DNAJB4 / Expression value HSPA1B / Expression value HSPH1 / Expression value HSPA4 / Expression value DNAJB9 / Expression value DNAJA1 / Expression value HSPA1A / Expression value HSPA6 / Expression value DNAJA4: MAS5-normalized array expression, arbitrary units
Protocol: The microarray based gene expression analysis and the Connectivity Map (CMAP) analysis was performed as previously described (40). Briefly, MCF7 cells were exposed to b-AP15 (1 μM, 6 h) or vehicle (0.1% DMSO, 6 h). RNA was isolated (RNeasy miniprep kit, Qiagen) followed by quality control, labelling and hybridization to Genome U133 Plus 2.0 arrays (Affymetrix Inc). Raw data was normalized using MasS (Affymetrix Inc.) and rank ordered. For selection of the 30 most induced (up tags) and the 30 most suppressed (down tags) transcripts the following criteria were used: Up tags, present call and expression over 300 arbitrary in the b-AP15 experiment; Down tags, present call after both b-AP15 and vehicle treatment, and expression over 300 arbitrary units in the vehicle experiment. For CMAP compatibility only tags (i.e. probes) present on HG U133A were used. Raw and normalized expression data have been deposited at Gene Expression Omnibus (http://www.ncbi.nlm. nih.gov/geo/) with accession number GSE24150.
Expression of chaperone genes observed in bAP15-treated cells (Table 1) is indicative of induction of a proteotoxic response.

[4] = test system: FaDu head and neck carcinoma xenografts; test: FaDu head and neck carcinoma xenografts in SCID mice; type: in vivo
Protocol: In vitro proteasome activity assays were performed in black 96-well microtitier plates using human 20S proteasome (Boston Biochem) in reaction buffer (25 mM Hepes, 0.5 mM EDTA, 0.03% SDS) with Suc-LLVY-AMC, Z-LLE-AMC or Boc-LRRAMC used as substrates for proteasome activity. De-ubiquitinase activity assays were performed with human 19S RP (Boston Biochem) with ubiquitin-AMC as substrate. For FaDu xenograft studies a 100-μl-cell suspension containing 1×10^6 cells was injected subcutaneously into the flank of SCID. Upon tumor take mice were randomized into control or treatment groups and administered with 5 mg kg^−1 b-AP15 or vehicle. In vivo levels of apoptosis and cell death were determined from the detection of caspase cleaved and total levels of cytokeratin-18 in plasma using M30 Apoptosense® and M65 ELISA®s assays (Peviva). […]
Animal experiments were conducted in full accordance with Swedish governmental statutory regulations on animal welfare under permission from local ethical committees. […] All mice were monitored and weighed daily. […] After injection, tumor growth was measured daily with calipers and the tumor volume calculated by the formula L×W^2×0.44. […] Nineteen days after malignant cell injection all of the mice were killed and histopathological manifestations of liver, ovary (target organs for this model of tumor) were evaluated and compared between groups. […]

C=CC(=O)N1C/C(=C\c2ccc([N+](=O)[O-])cc2)C(=O)/C(=C/c2ccc([N+](=O)[O-])cc2)C1 [b-AP15, (3E,5E)-3,5-bis[(4-nitrophenyl)methylidene]-1-(prop-2-enoyl)piperidin-4-one]
difference in weight at the start and the endpoint between control and treated animals [1]: +5.8%
IC50 [2]: 2100 ± 411 nM
Expression value HSPA6 ([3]; probe set 117_at, MCF7 cells, 1 μM, 6 h): 24149
Expression value DNAJB1 ([3]; probe set 200666_s_at, MCF7 cells, 1 μM, 6 h): 33900
Fold change DNAJB1 ([3]; probe set 200666_s_at, b-AP15 vs vehicle): 6
Expression value HSPA1A ([3]; probe set 200800_s_at, MCF7 cells, 1 μM, 6 h): 57478
Fold change HSPA1A ([3]; probe set 200800_s_at, b-AP15 vs vehicle): 4
Expression value DNAJA1 ([3]; probe set 200880_at, MCF7 cells, 1 μM, 6 h): 19970
Fold change DNAJA1 ([3]; probe set 200880_at, b-AP15 vs vehicle): 4
Expression value HSPA1B ([3]; probe set 202581_at, MCF7 cells, 1 μM, 6 h): 31068
Fold change HSPA1B ([3]; probe set 202581_at, b-AP15 vs vehicle): 5
Expression value DNAJB9 ([3]; probe set 202843_at, MCF7 cells, 1 μM, 6 h): 1879
Fold change DNAJB9 ([3]; probe set 202843_at, b-AP15 vs vehicle): 4
Expression value DNAJB4 ([3]; probe set 203810_at, MCF7 cells, 1 μM, 6 h): 1955
Expression value DNAJB4 ([3]; probe set 203811_s_at, MCF7 cells, 1 μM, 6 h): 960
Fold change DNAJB4 ([3]; probe set 203811_s_at, b-AP15 vs vehicle): 5
Expression value HSPA4L ([3]; probe set 205543_at, MCF7 cells, 1 μM, 6 h): 5452
Expression value HSPH1 ([3]; probe set 206976_s_at, MCF7 cells, 1 μM, 6 h): 40974
Fold change HSPH1 ([3]; probe set 206976_s_at, b-AP15 vs vehicle): 5
Expression value HSPA4 ([3]; probe set 211016_x_at, MCF7 cells, 1 μM, 6 h): 1803
Fold change HSPA4 ([3]; probe set 211016_x_at, b-AP15 vs vehicle): 4
Expression value DNAJA4 ([3]; probe set 225061_at, MCF7 cells, 1 μM, 6 h): 21103
Fold change DNAJA4 ([3]; probe set 225061_at, b-AP15 vs vehicle): 30
Expression value HSPD1 ([3]; probe set 241716_at, MCF7 cells, 1 μM, 6 h): 487
Fold change HSPD1 ([3]; probe set 241716_at, b-AP15 vs vehicle): 6
treated/control tumor volume, T/C ([4]; 5 mg/kg s.c. daily for 10 days, p=<0.001): 0.4
difference in weight at the start and the endpoint between control and treated animals ([4]; FaDu xenograft): −1.3%
